From paper PMC11988034, “Exposure–Response Relationships for Toceranib in Dogs with Solid Tumors: A Pilot Study” (Animals : an Open Access Journal from MDPI, 2025)
Like-named read-outs stand apart in the source and are kept apart here.

Experiments:
[1] = Plasma toceranib concentration (LC–MS/MS) in dogs with solid tumors treated with TOC; format: in vivo; details: for concentration at 48 h / Cmax: plasma; for concentration at 48 h: oral; for Cmax: po
Method: A prospective, randomized clinical trial was conducted on client-owned dogs diagnosed with malignant solid tumors between May 2022 and October 2023 at the Konkuk University Animal Cancer Center. TOC ([…], NJ, USA) was administered orally at a dose range of 2.4-2.9 mg/kg every other day with or without food. Medical data for the dogs were collected, including signalment (age, sex, and neuter status); physical examination, blood pressure, hematology, biochemistry, urinalysis, diagnostic imaging (radiography, ultrasound, and computed tomography), and histopathological findings (surgical margin and mitotic count); TOC dose and duration of TOC treatment; and AEs and clinical outcomes. Dogs were excluded from this study if distant metastases were confirmed at the time of diagnosis or if the TOC treatment duration was less than 1 month, which is insufficient for evaluating its effect. This clinical trial was approved by the Institutional Animal Care and Use Committee of the Konkuk University (approval no. KU 23046). Whole blood (1-2 mL) was obtained from the external jugular vein after initiation of postoperative TOC treatment. Blood samples were collected in ethylenediaminetetraacetic acid tubes 6 h (Cmax) and 48 h (Cmin) after administration; these time points were determined based on previous studies. Within 30 min of collection, the samples were centrifuged at 3000× g for 10 min at 4 °C. The plasma was separated, divided into cryovials, and stored at -80 °C until analysis. […] Plasma toceranib was quantitated via high-performance liquid chromatography with tandem mass spectrometry detection (LC-MS/MS). […] After thorough vortexing for 1 min, the mixture was centrifuged at 15,000× g for 10 min at 4 °C, and 2 μL of the supernatant was collected and injected into the LC-MS/MS system. The LC-MS/MS system comprised an ExionLCTM AD system (Sciex, Toronto, ON, Canada) coupled with a Triple QuadTM 5500+ mass system (Sciex). Data were acquired using Analyst 1.4.3. Chromatographic separation was performed using an XBridge C18 column (100 × 2.1 mm, 5 μm; Waters Corporation, Milford, MA, USA) maintained at 40 °C. An isocratic mobile phase comprising 0.1% formic acid in water and 0.1% formic acid in acetonitrile (30:70, v/v) was used at a flow rate 0.50 mL/min, with the total run time not exceeding 3 min. The autosampler was maintained at 15 °C. All measurements were conducted using a mass spectrometer operated in the positive electrospray ionization mode. The multiple reaction monitoring transitions were m/z 397.2 → 283.0 for toceranib and m/z 405.2 → 283.1 for the toceranib-d8 internal standard (IS). The other parameters were as follows: collision gas, curtain gas, ion source gas 1, and ion source gas 2 at 7, 35, 50, and 70 psi, respectively; dwell time, 200 ms; ion spray voltage and temperature, 4000 V and 600 °C, respectively; declustering potential, 80 V for toceranib and the IS; collision energy, 40 V for toceranib and the IS; entrance potential (EP), 12 V for toceranib and 8 V for IS; and collision exit potential, 16 V for toceranib and 18 V for the IS. Standard curves were generated using the peak area ratios of toceranib to the IS and 1/x^2 weighted linear regression. Toceranib concentrations were determined via interpolation across a range of 5-500 ng/mL. Continuous variables are expressed as the mean ± standard deviation. Interpatient variability is expressed as the coefficient of variation, calculated as standard deviation divided by the mean and expressed as a percentage. Normality was assessed using the Shapiro-Wilk test. Continuous variables were compared using Student's t-test or Mann-Whitney U test. Linear mixed models for repeated measures were used to compare plasma TOC concentrations over time. Data were analyzed using SPSS v26.0 (IBM Corp., Armonk, NY, USA). Differences were considered significant at p < 0.05.

malignant solid tumors = test: Assessment of clinical outcome (tumor recurrence) in dogs with solid tumors on postoperative TOC; format: in vivo
Method: A prospective, randomized clinical trial was conducted on client-owned dogs diagnosed with malignant solid tumors between May 2022 and October 2023 at the Konkuk University Animal Cancer Center. TOC (Palladia®, Zoetis, Parsippany, NJ, USA) was administered orally at a dose range of 2.4–2.9 mg/kg every other day with or without food. Medical data for the dogs were collected, including signalment (age, sex, and neuter status); physical examination, blood pressure, hematology, biochemistry, urinalysis, diagnostic imaging (radiography, ultrasound, and computed tomography), and histopathological findings (surgical margin and mitotic count); TOC dose and duration of TOC treatment; and AEs and clinical outcomes. Dogs were excluded from this study if distant metastases were confirmed at the time of diagnosis or if the TOC treatment duration was less than 1 month, which is insufficient for evaluating its effect. This clinical trial was approved by the Institutional Animal Care and Use Committee of the Konkuk University (approval no. KU 23046).
Rechecks were performed every 1–2 months after the initiation of TOC treatment through physical examination, three-view thoracic radiography, and abdominal ultrasonography.

[2] = Assessment of adverse events (VCOG-CTCAE v2.0) in dogs treated with TOC; format: in vivo
Method: AEs were evaluated before TOC treatment (at baseline) and 1, 2, and 4 weeks thereafter, followed by regular check-ups every 1–2 months. At each follow-up, a physical examination, blood pressure measurement, hematological and biochemical tests, and urinalysis were performed. AEs were graded according to the Veterinary Cooperative Oncology Group Common Terminology Criteria for AEs (v2.0). Concomitant medications, including famotidine, omeprazole, silymarin, ursodeoxycholic acid, mirtazapine, and tramadol, were allowed to prevent or treat drug-related AEs. TOC was permanently discontinued upon request of the owner or if unacceptable AEs occurred or disease progression was identified.

[3] = cited from earlier work
[4] = set-up: method as in PMID 24079884; details: cited from earlier work
[5] = set-up: method as in PMID 12855656; details: preclinical trials in rodent models; cited from earlier work
canine solid tumors = test system: canine solid tumors; set-up: method as in PMID 12855656, PMID 22236194, PMID 34981886; details: various types of canine solid tumors; cited from earlier work
[6] = cited from earlier work; remark: listed apart in the source
[7] = set-up: method as in PMID 34512023, PMID 31782166; details: patients with metastatic renal cell tumors; cited from earlier work

Cc1[nH]c(/C=C2\C(=O)Nc3ccc(F)cc32)c(C)c1C(=O)NCCN1CCCC1 [TOC, Toceranib phosphate]
mean interpatient variability in dose-normalized Cmax (coefficient of variation) ([1]; dog, in vivo): 29%
mean interpatient variability in dose-normalized Cmin (coefficient of variation) ([1]; dog, in vivo, 48 h): 61%
concentration at 48 h ([1]; dog, dogs with AEs, read-out: mean Cmin): 13.5 ± 12.1 ng/mL
concentration at 48 h ([1]; dog, dogs without AEs, read-out: mean Cmin): 14.9 ± 11.3 ng/mL
concentration at 48 h ([1]; dog, four dogs, mean ± SD, read-out: overall mean Cmin): 14.2 ± 9.57 ng/mL
Cmax ([1]; dog, dogs with AEs, read-out: mean Cmax at week 1): 89.3 ± 26.3 ng/mL
Cmax ([1]; dog, dogs with AEs, read-out: mean Cmax on average): 86.2 ± 28.6 ng/mL
Cmax ([1]; dog, dogs with tumor recurrence, read-out: mean Cmax at week 1): 74.6 ± 49.9 ng/mL
Cmax ([1]; dog, dogs with tumor recurrence, read-out: mean Cmax on average): 82.7 ± 42.6 ng/mL
Cmax ([1]; dog, dogs without AEs, read-out: mean Cmax at week 1): 59.9 ± 20.2 ng/mL
Cmax ([1]; dog, dogs without AEs, read-out: mean Cmax on average): 64.1 ± 8.58 ng/mL
Cmax ([1]; dog, dogs without tumor recurrence, read-out: mean Cmax at week 1): 77 ± 13.7 ng/mL
Cmax ([1]; dog, dogs without tumor recurrence, read-out: mean Cmax on average): 73.2 ± 12.3 ng/mL
Cmax ([1]; dog, individual dogs (case no. in c0), plasma 6 h after oral administration, week 12, read-out: Cmax Week 12): 47.4 ng/mL
Cmax ([1]; dog, nine dogs, average of weeks, mean ± SD, read-out: overall mean Cmax on average): 76.4 ± 22.5 ng/mL
Cmax ([1]; dog, nine dogs, mean ± SD, read-out: overall mean Cmax at week 1): 76.2 ± 27.2 ng/mL
time to steady-state plasma concentration ([1]; dogs, oral dosing every other day): ≤ 1 week
dogs that developed tumor recurrence (malignant solid tumors; three of the nine dogs with Cmax measured): 33.3%
dogs that developed local recurrence (malignant solid tumors; three out of ten dogs, follow-up period): 30%
dogs that experienced AEs ([2]; five of the nine dogs in which Cmax was measured): 55.6%
dogs that experienced AEs ([2]; five out of ten dogs, follow-up period): 50%
dogs that experienced AEs ([2]; two of the four dogs in which Cmin was measured): 50%
Cmax level associated with clinical efficacy ([3]; dogs with mast cell tumors receiving TOC at the MTD): at least 40 ng/mL
elimination half-life ([3]; in dogs): approximately 17 h
interpatient coefficient of variation for Cmax ([3]; previous PK study): 35–40%
interpatient coefficient of variation for Cmin ([3]; previous PK study): 30–61%
resulting Cmax ([4]; TOC administered within 2.4 to 2.9 mg/kg): > 40 ng/mL
dogs in which Cmax was reached at 6 or 8 h post-administration [4]: 69%
plasma concentration at 6 or 8 h as share of actual Cmax in the remaining dogs [4]: > 75%
therapeutic range (plasma concentration) [5]: 50 to 100 ng/mL
clinical benefit (canine solid tumors): 50–90%
biological activity (dogs responding) ([6]; 11/16 dogs treated with 2.5 mg/kg TOC every other day): 69%
biological activity (dogs responding) ([6]; 12/20 dogs treated with TOC at the MTD): 60%
maximum tolerated dose (MTD) ([6]; every other day, dogs): 3.25 mg/kg

CCN(CC)CCNC(=O)c1c(C)[nH]c(/C=C2\C(=O)Nc3ccc(F)cc32)c1C [sunitinib]
interpatient PK variability [7]: 34–60%
